Our source for the EC50 and CC50 values is patent US11905306B2 (priority 2021, dated 2024).

Data set [1] has as its system Toronto 2 SARS CoV-1. As to the kind of experiment: organism not typed. Format: cell-based. The settings on record: Vero C1008, 72 h, read-out: SARS-1 EC50 (μM) VeroE6.
Data set [2] concerns USA_WA1/2020 SARS CoV-2. As to the kind of experiment: microbe, parasite or virus in culture. As to conditions: Severe acute respiratory syndrome coronavirus 2, Vero C1008, 72 h, read-out: SARS-2 EC50 (μM) VeroE6. Format: cell-based.
The nature of data set [3]: in vitro. The settings on record: African green monkey.

As for `O=C1Nc2ccc(C(=O)Nc3cccc(C#Cc4ccccn4)c3)cc2CO1` [Compound 3, Oxo-N-(3-(pyridin-2-ylethynyl)phenyl)-1,4-dihydro-2H-benzo[d][1,3]oxazine-6-carboxamide], the EC50 (as a rule, the concentration that produces a half-maximal response) in data set [1] was greater than 30 µM; in data set [2], 11.6 µM. Moreover, the CC50 in data set [3] amounted to 15.8 µM.

For the compound `CCC(=O)Nc1ccc(C(=O)Nc2cccc(C#Cc3ccccn3)c2)cc1` [Compound 6, 4-Propionamido-N-(3-(pyridin-2-ylethynyl)phenyl)benzamide], the EC50 was 0.92 µM in data set [1] and 1.01 µM in data set [2]. The compound also registered a CC50 in data set [3] greater than 30 µM.

For the compound `CCCC(=O)Nc1ccc(C(=O)Nc2cccc(C#Cc3ccccn3)c2)cc1` [Compound 7, 4-Butyramido-N-(3-(pyridin-2-ylethynyl)phenyl)benzamide], the EC50 in data set [1] was 0.16 µM; in data set [2], 0.26 µM. For the same compound, the CC50 in data set [3] is greater than 30 µM.

With `O=C(Nc1cccc(C#Cc2ccccn2)c1)c1ccc(NC(=O)C(F)(F)F)cc1` [Compound 10, N-(3-(Pyridin-2-ylethynyl)phenyl)-4-(2,2,2-trifluoroacetamido)benzamide], the figures for the EC50 in data set [1] and in data set [2] were 4.89 µM and 6.52 µM, respectively. The CC50 in data set [3] is greater than 30 µM.

Regarding `CCOC(=O)Nc1ccc(C(=O)Nc2cccc(C#Cc3ccccn3)c2)cc1` [Compound 11, Ethyl (4-((3-(pyridin-2-ylethynyl)phenyl)carbamoyl)phenyl)carbamate], the EC50 is 0.84 µM in data set [1] and 1.07 µM in data set [2]. In addition, the CC50 in data set [3] was greater than 30 µM.

With `NC(=O)Nc1ccc(C(=O)Nc2cccc(C#Cc3ccccn3)c2)cc1` [Compound 12, N-(3-(pyridin-2-ylethynyl)phenyl)-4-ureidobenzamide], the EC50 in data set [1] and in data set [2] was greater than 30 µM in each case. In addition, in data set [3], the CC50 was greater than 30 µM.

Take `O=C(Nc1cccc(C#Cc2ccccn2)c1)c1ccc(NC(=O)N2CCOCC2)cc1` [Compound 13, N-(4-((3-(Pyridin-2-ylethynyl)phenyl)carbamoyl)phenyl)morpholine-4-carboxamide]: the EC50 in data set [1] worked out at 7.94 µM; in data set [2], 8.25 µM. Moreover, the CC50 in data set [3] is greater than 40 µM.

Consider `O=C(Nc1cccc(C#Cc2ccccn2)c1)c1ccc(N2CCCNC2=O)cc1` [Compound 15, 4-(2-Oxotetrahydropyrimidin-1(2H)-yl)-N-(3-(pyridin-2-ylethynyl)phenyl)benzamide], for which the values for the EC50 in data set [1] and in data set [2] were 9.71 µM and 7.81 µM, respectively. Further, the CC50 in data set [3] was greater than 30 µM.

With `CN1CCN(c2ccc(C(=O)Nc3cccc(C#Cc4ccccn4)c3)cc2)C1=O` [Compound 16, 4-(3-Methyl-2-oxoimidazolidin-1-yl)-N-(3-(pyridin-2-ylethynyl)phenyl)benzamide], the EC50 turned out to be 0.75 µM in data set [1] and 1.28 µM in data set [2]. In data set [3], this compound showed a CC50 greater than 30 µM.

As to `O=C(Nc1cccc(C#Cc2ccccn2)c1)c1ccc(N2CCCOC2=O)cc1` [Compound 18, 4-(2-Oxo-1,3-oxazinan-3-yl)-N-(3-(pyridin-2-ylethynyl)phenyl)benzamide], the EC50 in data set [1] and in data set [2] was greater than 30 µM in each case. Moreover, the CC50 in data set [3] was greater than 30 µM.

For the compound `CC(=O)N(C)c1ccc(C(=O)Nc2cccc(C#Cc3ccccn3)c2)cc1` [Compound 19, 4-(N-methylacetamido)-N-(3-(pyridin-2-ylethynyl)phenyl)benzamide], the EC50 in data set [1] was 2.19 µM; in data set [2], 3.92 µM. The compound also gave a CC50 in data set [3] greater than 30 µM.

`O=C(Nc1cccc(C#Cc2ccccn2)c1)c1ccc(N2CCC2=O)cc1` [Compound 20, 4-(2-oxoazetidin-1-yl)-N-(3-(pyridin-2-ylethynyl)phenyl)benzamide]: the figures for the EC50 in data set [1] and in data set [2] were 2.12 µM and 11.7 µM, respectively. Also, the CC50 in data set [3] was greater than 30 µM.

For the compound `CC1(C)CN(c2ccc(C(=O)Nc3cccc(C#Cc4ccccn4)c3)cc2)C1=O` [Compound 21, 4-(3,3-Dimethyl-2-oxoazetidin-1-yl)-N-(3-(pyridin-2-ylethynyl)phenyl)benzamide], the EC50 was determined as 0.52 µM in data set [1] and 0.32 µM in data set [2]. The compound also returned a CC50 in data set [3] greater than 30 µM.

With `O=C(Nc1cccc(C#Cc2ccccn2)c1)c1ccc(N2CCCCCC2=O)cc1` [Compound 25, 4-(2-Oxoazepan-1-yl)-N-(3-(pyridin-2-ylethynyl)phenyl)benzamide], the EC50 in data set [1] was found to be 0.52 µM; in data set [2], 1.09 µM. Moreover, the CC50 in data set [3] is greater than 30 µM.

With `COc1ccc(C(=O)Nc2ccc(C(=O)Nc3cccc(C#Cc4ccccn4)c3)cc2)cc1` [Compound 27, 4-Methoxy-N-(4-((3-(pyridin-2-ylethynyl)phenyl)carbamoyl)phenyl)benzamide], the EC50 in data set [1] and in data set [2] was greater than 30 µM in each case. This compound also came in with a CC50 in data set [3] greater than 30 µM.

For `O=C(Nc1ccc(C(=O)Nc2cccc(C#Cc3ccccn3)c2)cc1)c1ccc(O)cc1` [Compound 28, 4-Hydroxy-N-(4-((3-(pyridin-2-ylethynyl)phenyl)carbamoyl)phenyl)benzamide], the EC50 in data set [1] is 17.1 µM; in data set [2] it was greater than 30 µM. In addition, the CC50 in data set [3] was greater than 30 µM.

`CC(=O)Nc1ccc(C(=O)Nc2cccc(C#Cc3ccccn3)c2)cc1O` [Compound 30, 4-Acetamido-3-hydroxy-N-(3-(pyridin-2-ylethynyl)phenyl)benzamide]: the half-maximal effective concentration (EC50) in data set [1] came out at 6.18 µM; in data set [2], 4.37 µM. This compound yielded a CC50 in data set [3] greater than 30 µM.

Consider `CC(=O)Nc1ccc(C(=O)Nc2cccc(C#Cc3ccccn3)c2)nn1` [Compound 31, 6-Acetamido-N-(3-(pyridin-2-ylethynyl)phenyl)pyridazine-3-carboxamide], for which the EC50 in data set [1] and in data set [2] was greater than 30 µM throughout. The same compound yielded a CC50 in data set [3] greater than 30 µM.

Consider `O=C(Nc1cccc(C#Cc2ccccn2)c1)c1ccc(N2CCN(C3CCC3)CC2=O)cc1` [Compound 32, 4-(4-Cyclobutyl-2-oxopiperazin-1-yl)-N-(3-(pyridin-2-ylethynyl)phenyl)benzamide], for which the EC50 was 6.08 µM in data set [1] and 5.02 µM in data set [2]. Moreover, the CC50 in data set [3] turned out to be 23.1 µM.

Take `O=C(Nc1cccc(C#Cc2ccccn2)c1)c1ccc(N2CCN(CC3CCC3)CC2=O)cc1` [Compound 33, 4-(4-(Cyclobutylmethyl)-2-oxopiperazin-1-yl)-N-(3-(pyridin-2-ylethynyl)phenyl)benzamide]: the EC50 in data set [1] was 4.62 µM; in data set [2], greater than 30 µM. This compound also displayed a CC50 in data set [3] greater than 30 µM.

`Cc1nc2ccc(C(=O)Nc3cccc(C#Cc4ccccn4)c3)cc2o1` [Compound 34, 2-Methyl-N-(3-(pyridin-2-ylethynyl)phenyl)benzo[d]oxazole-6-carboxamide]: the EC50 in data set [1] was found to be 2.01 µM; in data set [2], 2.11 µM. Further, the CC50 in data set [3] came to 26.1 µM.

For `O=C(Nc1cccc(C#Cc2ccccn2)c1)c1ccc(N2CC3(CCC3)C2=O)cc1` [Compound 35, 4-(1-Oxo-2-azaspiro[3.3]heptan-2-yl)-N-(3-(pyridin-2-ylethynyl)phenyl)benzamide], the EC50 in data set [1] is 0.43 µM; in data set [2] it was 1.64 µM. This compound also gave a CC50 in data set [3] greater than 30 µM.

For `O=C(Nc1cccc(C#Cc2ccccn2)c1)c1ccc(N2CCCC3(CCC3)C2=O)cc1` [Compound 36, 4-(5-Oxo-6-Azaspiro[3.5]nonan-6-yl)-N-(3-(pyridin-2-ylethynyl)phenyl)benzamide], the EC50 came to 0.35 µM in data set [1] and 0.49 µM in data set [2]. Also, the CC50 in data set [3] came to 15.3 µM.

As to `O=C(Nc1cccc(C#Cc2ccccn2)c1)c1ccc(C(=O)NC2CC2)cc1` [Compound 37, N^1-cyclopropyl-N^4-(3-(pyridin-2-ylethynyl)phenyl)terephthalamide], the EC50 in data set [1] came to 2.12 µM; in data set [2], 4 µM. In data set [3], this compound came in with a CC50 greater than 30 µM.

In the case of `O=C(Nc1cccc(C#Cc2ccccn2)c1)c1ccc(C(=O)NC2CCC2)cc1` [Compound 38, N^1-cyclobutyl-N^4-(3-(pyridin-2-ylethynyl)phenyl)terephthalamide], the EC50 came to 0.75 µM in data set [1] and 1.64 µM in data set [2]. The compound further showed a CC50 in data set [3] greater than 30 µM.

As for `O=C(Nc1cccc(C#Cc2ccccn2)c1)c1ccc(C(=O)NC2CCCC2)cc1` [Compound 39, N^1-cyclopentyl-N^4-(3-(pyridin-2-ylethynyl)phenyl)terephthalamide], the EC50 in data set [1] was found to be 0.53 µM; in data set [2], 1 µM. The compound further yielded a CC50 in data set [3] greater than 40 µM.

With `O=C(Nc1cccc(C#Cc2ccccn2)c1)c1ccc(-c2nnco2)cc1` [Compound 41, 4-(1,3,4-Oxadiazol-2-yl)-N-(3-(pyridin-2-ylethynyl)phenyl)benzamide], the EC50 in data set [1] came to 0.93 µM; in data set [2], 1.54 µM. The CC50 in data set [3] is greater than 30 µM.

`CN(C)c1ccc(C(=O)Nc2cccc(C#Cc3ccccn3)c2)cc1` [Compound 42, 4-(Dimethylamino)-N-(3-(pyridin-2-ylethynyl)phenyl)benzamide]: the results for the EC50 in data set [1] and in data set [2] were 1.57 µM and 6.52 µM, respectively. In data set [3], the CC50 was greater than 30 µM.

For the compound `N#CC1(c2ccc(C(=O)Nc3cccc(C#Cc4ccccn4)c3)cc2)CC1` [Compound 45, 4-(1-Cyanocyclopropyl)-N-(3-(pyridin-2-ylethynyl)phenyl)benzamide], the EC50 in data set [1] worked out at 3.12 µM; in data set [2] it was 3.72 µM. This compound also showed a CC50 in data set [3] of 20.8 µM.

In the case of `Cc1cc(C#Cc2ccccn2)nc(NC(=O)c2ccc3c(c2)CCC(=O)N3)c1` [Compound 47, N-(4-Methyl-6-(pyridin-2-ylethynyl)pyridin-2-yl)-2-oxo-1,2,3,4-tetrahydroquinoline-6-carboxamide], the EC50 in data set [1] was determined as 5.51 µM; in data set [2], 6.29 µM. The same compound returned a CC50 in data set [3] greater than 30 µM.

Regarding `CC(=O)Nc1ccc(-c2nc3ccc(C#Cc4ccccn4)cc3[nH]2)cc1` [Compound 49, N-(4-(5-(Pyridin-2-ylethynyl)-1H-benzo[d]imidazol-2-yl)phenyl)acetamide], the EC50 in data set [1] and in data set [2] was greater than 30 µM each time. Further, the CC50 in data set [3] is greater than 30 µM.
